Here are results for nine molecules from US8513027B2, “Method of identifying an inhibitor of the prostanoid EP4 receptor” (Asterand UK Acquisition Limited, priority 1998, dated 2013).

For assay [1], the system named is human cerebral artery rings. Put plainly: tone of isolated human cerebral artery rings exposed to prostanoid receptor agonists. The assay is classed as cell-based. The following applies: for effect on smaller diameter cerebral artery rings contracted with phenylephrine, TP receptors blocked: phenylephrine 1 μM, GR32191 1 μM in bathing solution. As for the experimental part:
Sections of cerebral artery were removed from different regions of preparations of human cerebral vasculature containing an intact circle of Willis. Intact rings of this cerebral artery, 2-3 mm in length, were set up under isometric conditions in 10 ml organ baths under an initial tension of 1 g. All tissues were maintained at 37° C. and gassed constantly with 95% O2/5% CO2. Following a 90 min equilibration period all tissues were challenged with phenylephrine (1 μM), to determine tissue viability. Once a stable contraction had been obtained, tissues were exposed to a range of prostanoid receptor agonists, in the absence or presence of receptor antagonists, to determine the functional role of prostanoid receptors in maintaining arterial tone.

The subject of the next assay is coronary artery. Briefly: effect on pre-contracted coronary artery rings. The following applies: n=3 donors; for relaxation of coronary artery: tone induced with phenylephrine 1-10 μM or endothelin-1. In kind it is cell-based, human. As for the experimental part:
(§1) Rings (2-4 mm internal diameter) were prepared from sections of pulmonary or coronary artery (n=3 each). They were mounted in organ baths under isometric conditions, in gassed Krebs solution (containing indomethacin) at 37° C., and 1-1.5 g initial tone.

A further assay deals with pulmonary artery. Put plainly: effect on pre-contracted pulmonary artery rings. The assay is classed as cell-based, human. The following applies: tone induced with U-46619 10-100 nM; n=3 donors. As for the experimental part:
as §1

The target in another assay is EP2 (Homo sapiens, UniProt P43116). The following applies: cited from earlier work.
EP2, sequence (P43116 whole entry): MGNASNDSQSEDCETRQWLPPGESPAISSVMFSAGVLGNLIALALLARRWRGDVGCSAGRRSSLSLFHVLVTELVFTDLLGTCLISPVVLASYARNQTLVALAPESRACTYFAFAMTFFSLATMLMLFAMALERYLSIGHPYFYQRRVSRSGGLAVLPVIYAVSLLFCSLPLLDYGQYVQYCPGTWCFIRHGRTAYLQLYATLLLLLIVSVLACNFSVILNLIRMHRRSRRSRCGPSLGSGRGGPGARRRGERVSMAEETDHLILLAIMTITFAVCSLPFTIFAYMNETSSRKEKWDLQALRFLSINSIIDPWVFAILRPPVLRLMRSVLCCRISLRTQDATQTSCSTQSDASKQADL
For a further assay, the target named is T1, EP4 receptor (Homo sapiens, UniProt P35408).
T1 construct: Intact rings of this cerebral artery, 2-3 mm in length, were set up under isometric conditions; from tissue; host or cells: human middle cerebral artery rings (one donor)
T1 sequence (P35408 whole entry): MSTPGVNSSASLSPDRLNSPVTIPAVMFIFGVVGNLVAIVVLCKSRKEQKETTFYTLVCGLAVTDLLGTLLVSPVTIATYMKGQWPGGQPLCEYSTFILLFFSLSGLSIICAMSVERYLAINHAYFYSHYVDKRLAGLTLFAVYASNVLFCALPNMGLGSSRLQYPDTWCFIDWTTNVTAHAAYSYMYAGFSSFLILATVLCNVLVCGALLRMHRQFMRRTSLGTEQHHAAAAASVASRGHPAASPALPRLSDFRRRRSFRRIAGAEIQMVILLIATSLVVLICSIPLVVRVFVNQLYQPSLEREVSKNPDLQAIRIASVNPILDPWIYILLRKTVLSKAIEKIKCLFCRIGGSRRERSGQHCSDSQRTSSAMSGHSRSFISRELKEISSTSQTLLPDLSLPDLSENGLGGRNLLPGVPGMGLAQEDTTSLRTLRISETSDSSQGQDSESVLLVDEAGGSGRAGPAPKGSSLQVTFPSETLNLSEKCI
Briefly: antagonism of PGE2-mediated relaxation of phenylephrine pre-contracted middle cerebral artery rings. In kind it is cell-based. The following applies: 10 mM AH23848, 45 mins; P=0.004. As for the experimental part: Sections of cerebral artery were removed from different regions of preparations of human cerebral vasculature containing an intact circle of Willis. […] Once a stable contraction had been obtained, tissues were exposed to a range of prostanoid receptor agonists, in the absence or presence of receptor antagonists, to determine the functional role of prostanoid receptors in maintaining arterial tone.
To test the effect of the EP4 receptor antagonist AH23848, cerebral rings were preincubated for 45 mins with 10 mM AH23848.

The next assay concerns the target T2, EP4 receptors (Sus scrofa, UniProt I3LLK4).
T2 construct: providing a natural source of the receptors, such as piglet saphenous vein; from tissue; host or cells: piglet saphenous vein rings
The following applies: blockade of EP4 receptors; cited from earlier work.

The test system of another assay is EP1. The settings on record: cited from earlier work.
The target in another assay is T3, EP3 (Homo sapiens, UniProt P43115).
T3 sequence (P43115 1-390): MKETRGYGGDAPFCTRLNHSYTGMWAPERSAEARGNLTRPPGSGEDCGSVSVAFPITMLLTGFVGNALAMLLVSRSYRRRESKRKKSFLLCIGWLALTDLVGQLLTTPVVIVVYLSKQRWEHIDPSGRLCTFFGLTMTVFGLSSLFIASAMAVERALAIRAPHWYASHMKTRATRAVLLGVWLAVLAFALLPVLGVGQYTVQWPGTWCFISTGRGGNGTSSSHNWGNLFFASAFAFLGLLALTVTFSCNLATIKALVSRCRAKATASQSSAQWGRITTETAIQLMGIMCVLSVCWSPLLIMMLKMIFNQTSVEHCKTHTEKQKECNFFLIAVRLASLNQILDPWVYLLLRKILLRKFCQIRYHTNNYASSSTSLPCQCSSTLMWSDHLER
The settings on record: cited from earlier work.

T2 sequence (I3LLK4 1-489): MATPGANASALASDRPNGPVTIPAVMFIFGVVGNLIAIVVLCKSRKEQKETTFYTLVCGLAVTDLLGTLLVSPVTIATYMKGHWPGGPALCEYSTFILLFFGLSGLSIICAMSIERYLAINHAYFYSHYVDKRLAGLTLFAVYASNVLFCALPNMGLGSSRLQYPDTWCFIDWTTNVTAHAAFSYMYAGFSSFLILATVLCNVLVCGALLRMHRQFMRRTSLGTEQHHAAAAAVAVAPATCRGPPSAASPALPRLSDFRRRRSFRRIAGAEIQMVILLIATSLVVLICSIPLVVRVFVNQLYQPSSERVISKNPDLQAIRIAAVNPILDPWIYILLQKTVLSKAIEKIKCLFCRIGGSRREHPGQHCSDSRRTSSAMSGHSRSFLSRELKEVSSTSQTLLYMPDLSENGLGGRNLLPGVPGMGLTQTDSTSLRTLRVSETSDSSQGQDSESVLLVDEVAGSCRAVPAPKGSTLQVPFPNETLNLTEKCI

Turning to `CCC#CC[C@H](C)[C@H](O)C#C[C@@H]1[C@H]2C/C(=C/COCC(=O)O)C[C@H]2C[C@H]1O` [cicaprost], the “effect on smaller diameter cerebral artery rings contracted with phenylephrine, TP receptors blocked” value (“effect … TP receptors blocked” for short) in assay [1] was “induced relaxation”. In addition, in the assay with coronary artery, the “relaxation of coronary artery” value is “induced a relaxation”. Besides, the “relaxation of pulmonary artery” value in the assay on pulmonary artery is reported as “induced a relaxation”.

For `CC#CCC(C)[C@H](O)/C=C/[C@@H]1[C@H]2C/C(=C/CCCC(=O)O)C[C@H]2C[C@H]1O` (stereo partly shown) [Iloprost], the “effect … TP receptors blocked” value in assay [1] is “induced relaxation”.

For the molecule `CCCC1([C@H](O)C/C=C/[C@H]2[C@H](O)CC(=O)[C@@H]2CCCCCCC(=O)OC)CCC1` [Butaprost], in assay [1], the “effect … TP receptors blocked” value is “neither compound caused relaxation”.

On to `CCCCCC(O)c1ccc([C@@H]2CCC(=O)[C@H]2CCCCCCC(=O)O)cc1` (relative stereo) [AH13205, trans-2-(4-[1-hydroxyhexyl]phenyl)-5-oxocyclopentaneheptanoate], for which the “effect … TP receptors blocked” value in assay [1] was “neither compound caused relaxation”.

For `CCCCC[C@H](O)/C=C/[C@@H]1[C@@H](C/C=C\CCCC(=O)O)[C@@H](O)C[C@H]1O` [PGF2α], the “effect … TP receptors blocked” value in assay [1] is “without effect”.

`CCCCC[C@H](O)/C=C/[C@H]1C(=O)C[C@H](O)[C@@H]1C/C=C\CCCC(=O)O` [PGD2]: the “effect … TP receptors blocked” value in assay [1] is on record as “without effect”.

Turning to `O=C(O)CC/C=C\CC[C@@H]1C(N2CCOCC2)C(=O)C[C@@H]1OCc1ccc(-c2ccccc2)cc1` (stereo partly shown) [AH23848], at EP2, the “effect on EP2 receptor subtype” value was “no effect”. In addition, the “shift of PGE2-mediated relaxation curve” value on EP4 receptor is recorded as “significant rightward shift”. At EP4 receptors, the “pA2 against PGE2-induced relaxation of piglet saphenous vein” value is listed as 5.4. Besides, the “effect on EP1 receptor subtype” value in the assay on EP1 is given as “no effect”. The “effect on EP3 receptor subtype” value at EP3 is listed as “no effect”.

As to `O=C(O)CCC/C=C\C[C@@H]1C(N2CCOCC2)C(=O)C[C@@H]1OCc1ccc(-c2ccccc2)cc1` (stereo partly shown) [AH22921], the “effect on EP2 receptor subtype” value at EP2 is given as “no effect”. Further, on EP4 receptors, the “pA2 against PGE2-induced relaxation of piglet saphenous vein” value is reported as 5.3. Further, the “effect on EP1 receptor subtype” value with EP1 was “no effect”. In addition, the “effect on EP3 receptor subtype” value at EP3 is listed as “no effect”.

Consider `CCCCC[C@H](O)/C=C/[C@H]1[C@H](O)CC(=O)[C@@H]1C/C=C\CCCC(=O)O` [PGE2, prostaglandin E2], for which, in assay [1] (U46619 100 nM or 5-HT 300 nM and 1 μM, FIG. 2), the “relaxation of cerebral artery rings pre-contracted with U46619 or 5-HT” value was “maximal or near maximal relaxation”. Besides, in assay [1] (human cerebral arteries), the “effect of removal of the endothelium on the relaxant response” value was “did not affect”. The “effect on smaller pre-contracted cerebral vessels” value in assay [1] (internal diameter <1 mm, pre-contracted with phenylephrine) is given as “potent concentration-related relaxation”. In addition, the “effect on larger cerebral vessels” value in assay [1] (internal diameter >1 mm) is reported as “concentration-related contraction”. In assay [1] (vessel pre-contracted with phenylephrine, FIG. 1), the “concentration at which maximum relaxation occurs” value is given as “below 10^−6 M”. For the same molecule, in the assay with coronary artery (pre-contracted preparations), the “contraction of coronary artery” value is “small contraction”. Besides, in the assay with coronary artery, the “relaxation of coronary artery” value was “did not cause relaxation”. For the same molecule, the “relaxation of pulmonary artery” value in the assay on pulmonary artery is given as “did not cause relaxation”.
